Laboratory results from US20220089629A1, “AMORPHOUS SIALYLATED OLIGOSACCHARIDES” (GLYCOM A/S, priority 2019, published 2022).
Structures can show the parent of a compound that is named as a salt.

How the values were obtained:
[1] = pH measurement of aqueous solutions by pH-meter; format: physicochemical; conditions: for pH of aqueous stock solution: before pH adjustment
Description: When a pH value is referred to, it is measured by a pH-meter conventionally.
3′-SL Na-salt was made by bacterial fermentation and isolated in accordance with e.g. WO 2017/152918. An aqueous stock solution was made the concentration of which was 5.3 g/100 g, pH: 4.8.
Series A: a part of the above aqueous stock solution was adjusted to pH of 3.6 by addition of 1 M HCl-solution. The so-obtained solution was freeze-dried to give a white amorphous powder. The pH of its 5 w/w % solution was 3.9.
6′-SL Na-salt was made by bacterial fermentation and isolated in accordance with e.g. US 2018/0002363. An aqueous stock solution was made the concentration of which was 9.1 g/100 g, pH: 5.4.
Series A: a part of the above aqueous stock solution was adjusted to pH of 3.1 by addition of 1 M HCl-solution. The so-obtained solution was freeze-dried to give a white amorphous powder. The pH of its 5 w/w % solution was 3.5.

[2] = Forced heat stability test of freeze-dried amorphous 3′-SL samples, analysed by HPAEC-PAD; format: physicochemical
Description: Seven by one gram from each series, separately, was put into 4 ml glass vials and closed with screw lid containing teflon inliner (21 samples altogether). Three samples from each series were put into a 60° C. oven, and another three samples from each series were put into a 80° C. oven. One samples from each series was removed from the ovens after a time indicated below and kept in a freezer until analysis. The t=0 samples (one sample from each series) were kept in freezer during the entire time of the test.
The samples were analysed together after the longest incubation had finished by HPAEC-PAD on Carbopac PA-200 (3×250 mm) column using isocratic 75 mM NaOH+37.5 mM NaOAc eluent.

In the case of `CC(=O)N[C@H]1[C@H]([C@H](O)[C@H](O)CO)O[C@@](O[C@H]2[C@@H](O)[C@@H](CO)O[C@@H](O[C@H]3[C@H](O)[C@@H](O)C(O)O[C@@H]3CO)[C@@H]2O)(C(=O)O)C[C@@H]1O` (stereo partly drawn) [3′-SL Na-salt, 3′-sialyllactose], the “pH of aqueous stock solution” value ([1]; concentration 5.3 g/100 g) is reported as 4.8.

For `CC(=O)N[C@H]1[C@H]([C@H](O)[C@H](O)CO)O[C@@](OC[C@H]2O[C@@H](O[C@H]3[C@H](O)[C@@H](O)[C@H](O)O[C@@H]3CO)[C@H](O)[C@@H](O)[C@H]2O)(C(=O)O)C[C@@H]1O` [6′-SL Na-salt, 6′-sialyllactose], the “pH of aqueous stock solution” value ([1]; concentration 9.1 g/100 g) was 5.4.

With `CC(=O)N[C@H]1[C@H]([C@H](O)[C@H](O)CO)O[C@@](O[C@H]2[C@@H](O)[C@@H](CO)O[C@@H](O[C@H]3[C@H](O)[C@@H](O)C(O)O[C@@H]3CO)[C@@H]2O)(C(=O)O)C[C@@H]1O` (stereo partly drawn) [Example 1 Series A, 3′-sialyllactose] the “content of 3′-O-sialyl-lactulose (ketose rearranged derivative of 3′-SL) in the sample” value (“content of 3′-O-sialyl-lactulose” for short) ([2]; 60° C., 2 weeks, solid in closed vial, listed as sample A) was 1.66 area %, the “content of 3′-O-sialyl-lactulose” value ([2]; 60° C., 4 weeks, solid in closed vial, listed as sample A) was 2.12 area % and the “content of 3′-O-sialyl-lactulose” value ([2]; 60° C., 6 weeks, solid in closed vial, listed as sample A) was 1.96 area %. For the same compound, the “content of 3′-O-sialyl-lactulose” value ([2]; 80° C., 1 weeks, solid in closed vial, listed as sample A) was 1.91 area %, the “content of 3′-O-sialyl-lactulose” value ([2]; 80° C., 2 weeks, solid in closed vial, listed as sample A) was 1.97 area % and the “content of 3′-O-sialyl-lactulose” value ([2]; 80° C., 4 weeks, solid in closed vial, listed as sample A) was 2.24 area %. For the same compound, the “content of 3′-O-sialyl-lactulose” value ([2]; t = 0, kept in freezer, listed as sample A) was 1.75 area %.

With `CC(=O)N[C@H]1[C@H]([C@H](O)[C@H](O)CO)O[C@@](O[C@H]2[C@@H](O)[C@@H](CO)O[C@@H](O[C@H]3[C@H](O)[C@@H](O)C(O)O[C@@H]3CO)[C@@H]2O)(C(=O)O)C[C@@H]1O` (stereo partly drawn) [Example 1 Series B, 3′-sialyllactose] the “content of 3′-O-sialyl-lactulose” value ([2]; 60° C., 2 weeks, solid in closed vial, listed as sample B) was 2.16 area %, the “content of 3′-O-sialyl-lactulose” value ([2]; 60° C., 4 weeks, solid in closed vial, listed as sample B) was 2.16 area % and the “content of 3′-O-sialyl-lactulose” value ([2]; 60° C., 6 weeks, solid in closed vial, listed as sample B) was 2.31 area %. The “content of 3′-O-sialyl-lactulose” value ([2]; 80° C., 1 weeks, solid in closed vial, listed as sample B) was 2.34 area %, the “content of 3′-O-sialyl-lactulose” value ([2]; 80° C., 2 weeks, solid in closed vial, listed as sample B) was 2.39 area % and the “content of 3′-O-sialyl-lactulose” value ([2]; 80° C., 4 weeks, solid in closed vial, listed as sample B) was 2.88 area %. The “content of 3′-O-sialyl-lactulose” value ([2]; t = 0, kept in freezer, listed as sample B) was 1.77 area %.

In the case of `CC(=O)N[C@H]1[C@H]([C@H](O)[C@H](O)CO)O[C@@](O[C@H]2[C@@H](O)[C@@H](CO)O[C@@H](O[C@H]3[C@H](O)[C@@H](O)C(O)O[C@@H]3CO)[C@@H]2O)(C(=O)O)C[C@@H]1O` (stereo partly drawn) [Example 1 Series C, 3′-sialyllactose], the “content of 3′-O-sialyl-lactulose” value ([2]; 60° C., 2 weeks, solid in closed vial, listed as sample C) is reported as 2.67 area %, the “content of 3′-O-sialyl-lactulose” value ([2]; 60° C., 4 weeks, solid in closed vial, listed as sample C) is reported as 2.96 area % and the “content of 3′-O-sialyl-lactulose” value ([2]; 60° C., 6 weeks, solid in closed vial, listed as sample C) is reported as 3.03 area %. For the same compound, the “content of 3′-O-sialyl-lactulose” value ([2]; 80° C., 1 weeks, solid in closed vial, listed as sample C) was 2.95 area %, the “content of 3′-O-sialyl-lactulose” value ([2]; 80° C., 2 weeks, solid in closed vial, listed as sample C) was 3.38 area % and the “content of 3′-O-sialyl-lactulose” value ([2]; 80° C., 4 weeks, solid in closed vial, listed as sample C) was 4.61 area %. For the same compound, the “content of 3′-O-sialyl-lactulose” value ([2]; t = 0, kept in freezer, listed as sample C) was 1.81 area %.

In the case of `CC(=O)N[C@H]1[C@H]([C@H](O)[C@H](O)CO)O[C@@](OC[C@H]2O[C@@H](O[C@H]3[C@H](O)[C@@H](O)[C@H](O)O[C@@H]3CO)[C@H](O)[C@@H](O)[C@H]2O)(C(=O)O)C[C@@H]1O` [Example 2 Series D, 6′-sialyllactose], the “pH of the 5 w/w % solution of the freeze-dried amorphous powder” value ([1]; 5 w/w % aqueous solution after freeze-drying) is reported as 6.2.
